# Tested on: rat H9C2 cells
# Assay: trypan-blue cell viability assay
# Assay type: cell-based
# Conditions: 1 μM and 5 μM, 7 days, vs control-untreated cells
# Experimental: Two different cardiac cell lines, rat H9C2 cells and mouse HL-1 cells, and two different assays, trypan-blue cell viability assay and calcium dye fluorescent based assay, were used to determine the cytotoxicity of prepared alginate-αCGRP microcapsules.
# Trypan-blue cell viability assay: Rat cardiac myoblast cell line, H9C2 cells, was cultured in complete culture medium containing Dulbecco's Modified Eagles' Medium (DMEM) supplemented with 10% fetal bovine serum (FBS), 4.5 gm/liter D-glucose, 1.5 gm/liter sodium bicarbonate, and antibiotic solution of 100 unit/ml penicillin and 100 μg/ml streptomycin. […] The viability of H9C2 cells in presence or absence of alginate-αCGRP microcapsules was determined by trypan blue assay. […] After 7 days of treatment, cells were trypsinized and counted by hemocytometer using trypan-blue exclusion method (Sigma) according to manufacturer's instructions. […]
# Trypan-blue cell viability assay: The rat cardiac H9C2 cells were grown at 37° C. in a humidified incubator with 5% CO2 in complete culture medium (containing DMEM supplemented with 10% fetal bovine serum, FBS, 4.5 gm/liter D-glucose, and 1× penicillin/streptomycin). The viability of H9C2 cells in presence of alginate-α-CGRP microcapsules was determined by trypan-blue assay (Sigma). […] After 7 days of treatment, cells were trypsinized and counted by hemocytometer using trypan-blue exclusion method.
smiles,measurement,value
CC(C)C[C@H](NC(=O)CNC(=O)[C@H](C)NC(=O)[C@H](CC(C)C)NC(=O)[C@H](CCCNC(=N)N)NC(=O)[C@H](Cc1c[nH]cn1)NC(=O)[C@@H](NC(=O)[C@@H](NC(=O)[C@@H]1CSSC[C@H](NC(=O)[C@@H](N)CO)C(=O)N[C@@H](CC(N)=O)C(=O)N[C@@H]([C@@H](C)O)C(=O)N[C@@H](C)C(=O)N[C@@H]([C@@H](C)O)C(=O)N1)C(C)C)[C@@H](C)O)C(=O)N[C@@H](CC(C)C)C(=O)N[C@@H](CO)C(=O)N[C@@H](CCCNC(=N)N)C(=O)N[C@@H](CO)C(=O)NCC(=O)NCC(=O)N[C@H](C(=O)N[C@H](C(=O)N[C@@H](CCCCN)C(=O)N[C@@H](CC(=O)O)C(=O)N[C@@H](CC(N)=O)C(=O)N[C@@H](Cc1ccccc1)C(=O)N[C@H](C(=O)N1CCC[C@H]1C(=O)N[C@H](C(=O)N[C@@H](CC(N)=O)C(=O)N[C@H](C(=O)NCC(=O)N[C@@H](CO)C(=O)N[C@@H](CCC(=O)O)C(=O)N[C@@H](C)C(=O)N[C@@H](Cc1ccccc1)C(N)=O)C(C)C)[C@@H](C)O)C(C)C)C(C)C)C(C)C [α-CGRP-alone],"viability of H9C2 cells (live cells, trypan blue)",not significantly different

# Reference: patent US20220259279A1, “ALGINATE-BASED MICROCAPSULATION FOR THE DELIVERY OF ALPHA-CGRP IN CARDIOVASCULAR DISEASES” (University of South Carolina, priority 2019, published 2022)
